Measurements reported in patent US4528369A, “20-Dihydro-20-deoxy-23-de(mycinosyloxy)tylosin” (Eli Lilly and Company, priority 1983, dated 1985).
Values after ≈ are worked out from the molar mass of the structure shown. “Also recorded” adds a separate entry of the source. Read-outs that look alike come from different tables or passages of the source.

Tests used:
[1] = system: Staphylococcus aureus X400; test: MIC, standard agar-dilution assay (Table II); format: cell-based
Protocol: (§1) Tables II and III summarize the minimal inhibitory concentrations (MIC) at which 20-deoxo-DMOT and mycaminosyltylactone (as free bases) inhibit certain organisms. The MIC's in Table II were determined by standard agar-dilutionassays. The MIC's in Table III were obtained using a conventional broth-dilution microtiter test.

[2] = system: Streptococcus pyogenes C203; test: MIC, standard agar-dilution assay (Table II); format: cell-based
Protocol: as §1

[3] = system: Staphylococcus aureus V41; test: MIC, standard agar-dilution assay (Table II); format: cell-based; details: free base, S. aureus V41
Protocol: as §1

Shigella sonnei N9 = test: MIC, standard agar-dilution assay (Table II); format: cell-based; details: free base
Protocol: as §1

[4] = system: Streptococcus pneumoniae Park 1; test: MIC, standard agar-dilution assay (Table II); format: cell-based; details: PARK1, free base, S. pneumoniae Park 1
Protocol: as §1

Escherichia coli EC14 = test: MIC, standard agar-dilution assay (Table II); format: cell-based; details: free base, E. coli EC14
Protocol: as §1

[5] = system: Klebsiella pneumoniae X26; test: MIC, standard agar-dilution assay (Table II); format: cell-based
Protocol: as §1

[6] = system: Staphylococcus aureus S13E; test: MIC, standard agar-dilution assay (Table II); format: cell-based
Protocol: as §1

[7] = system: Staphylococcus aureus NRRL B313; test: MIC, standard agar-dilution assay (Table II); format: cell-based
Protocol: as §1

[8] = system: Haemophilus influenzae 76; test: MIC, standard agar-dilution assay (Table II); format: cell-based
Protocol: as §1

[9] = system: Streptococcus sp. group D 9960; test: MIC, standard agar-dilution assay (Table II); format: cell-based
Protocol: as §1

[10] = system: Staphylococcus epidermidis EPI1; test: MIC, standard agar-dilution assay (Table II); format: cell-based; details: free base, S. epidermidis EPI1
Protocol: as §1

Escherichia coli N10 = test: MIC, standard agar-dilution assay (Table II); format: cell-based; details: free base, E. coli N10
Protocol: as §1

[11] = system: Streptococcus faecium ATCC 9790; test: MIC, standard agar-dilution assay (Table II); format: cell-based; details: Enterococcus faecium, ATCC9790
Protocol: as §1

[12] = system: Klebsiella pneumoniae KAE; test: MIC, standard agar-dilution assay (Table II); format: cell-based; details: free base, K. pneumoniae KAE
Protocol: as §1

[13] = system: Haemophilus influenzae C.L.; test: MIC, standard agar-dilution assay (Table II); format: cell-based
Protocol: as §1

Escherichia coli TEM = test: MIC, standard agar-dilution assay (Table II); format: cell-based
Protocol: as §1

[14] = system: Staphylococcus epidermidis EPI2; test: MIC, standard agar-dilution assay (Table II); format: cell-based; details: free base, S. epidermidis EPI2
Protocol: as §1

[15] = system: pathogenic bacteria, especially gram-positive bacteria and Mycoplasma species; test: Inhibition of growth of pathogenic bacteria (in words); format: cell-based
Protocol: as §1

[16] = system: Pasteurella multocida 60A; test: MIC, conventional broth-dilution microtiter test (Table III); format: cell-based; details: free base, P. multocida 60A, avian isolate
Protocol: as §1

Mycoplasma hyorhinis = test: as above; format: cell-based; details: free base, M. hyorhinis
Protocol: as §1

[17] = system: Pasteurella hemolytica 22C; test: as above; format: cell-based; details: free base, P. hemolytica 22C
Protocol: as §1

[18] = system: Pasteurella multocida 17E; test: as above; format: cell-based; details: free base, P. multocida 17E, bovine isolate
Protocol: as §1

Mycoplasma gallisepticum = test: as above; format: cell-based; details: Mycoplasmoides gallisepticum, free base, M. gallisepticum
Protocol: as §1

Mycoplasma synoviae = test: as above; format: cell-based; details: Mycoplasmopsis synoviae, free base, M. synoviae
Protocol: as §1

Solubility = format: physicochemical; details: free base

With `CCC1CC(C)C(=O)/C=C/C(C)=C/C(C)C(CC)OC(=O)CC(O)C(C)C1OC1OC(C)C(OC2CC(C)(O)C(O)C(C)O2)C(N(C)C)C1O` (stereo not shown) [20-Deoxo-DMOT, 20-dihydro-20-deoxy-23-de(mycinosyloxy)tylosin] the MIC ([1]; X400) was 128 µg/mL (≈ 180 µM), the MIC ([2]; C203) was 128 µg/mL (≈ 180 µM) and the MIC [3] was 64 µg/mL (≈ 89.9 µM). For the same compound, the MIC (Shigella sonnei N9) was > 128 µg/mL, the MIC [4] was 64 µg/mL (≈ 89.9 µM) and the MIC (Escherichia coli EC14) was > 128 µg/mL. For the same compound, the MIC ([5]; X26) was > 128 µg/mL, the MIC [6] was 64 µg/mL (≈ 89.9 µM) and the MIC ([7]; NRRLB313) was 128 µg/mL (≈ 180 µM). The MIC [8]; 76 was > 128 µg/mL, the MIC ([9]; Streptococcus) was > 128 µg/mL and the MIC [10] was 64 µg/mL (≈ 89.9 µM). For the same compound, the MIC (Escherichia coli N10) was > 128 µg/mL, the MIC [11] was > 128 µg/mL and the MIC [12] was > 128 µg/mL. The MIC [13] was > 128 µg/mL, the MIC (Escherichia coli TEM) was > 128 µg/mL and the MIC [14] was 64 µg/mL (≈ 89.9 µM). For the same compound, the “antibacterial activity (in words)” value [15] was “some antibacterial activity; also recorded: inhibit the growth of pathogenic bacteria, especially gram-positive bacteria and Mycoplasma species”, the MIC [16] was > 50 µg/mL and the MIC (Mycoplasma hyorhinis) was 50 µg/mL (≈ 70.2 µM). For the same compound, the MIC [17] was > 50 µg/mL, the MIC [18] was > 50 µg/mL and the MIC (Mycoplasma gallisepticum) was > 50 µg/mL. The MIC (Mycoplasma synoviae) was 50 µg/mL (≈ 70.2 µM), the solubility in water (Solubility) was “slightly soluble in water” and the “solubility in polar organic solvents” value (Solubility; acetone, methanol, ethanol, chloroform, dimethylformamide and dimethyl sulfoxide) was “soluble in most polar organic solvents such as acetone, methanol, ethanol, chloroform, dimethylformamide and dimethyl sulfoxide”.

`CCC1CC(C)C(=O)/C=C/C(C)=C/C(C)C(CC)OC(=O)CC(O)C(C)C1OC1OC(C)C(O)C(N(C)C)C1O` (stereo not shown) [Mycaminosyltylactone, 5-O-mycaminosyltylactone] showed an MIC ([1]; free base, agar-dilution, S. aureus X400, read-out: MIC) of 32 µg/mL (≈ 56.4 µM), an MIC ([2]; free base, agar-dilution, S. pyogenes C203, read-out: MIC) of 32 µg/mL (≈ 56.4 µM) and an MIC [3] of 16 µg/mL (≈ 28.2 µM). For the same compound, the MIC (Shigella sonnei N9) was > 128 µg/mL, the MIC [4] was 4 µg/mL (≈ 7.05 µM) and the MIC (Escherichia coli EC14) was > 128 µg/mL. It also gave an MIC ([5]; free base, agar-dilution, K. pneumoniae X26, read-out: MIC) of 8 µg/mL (≈ 14.1 µM), an MIC [6] of 8 µg/mL (≈ 14.1 µM) and an MIC ([7]; NRRLB313, free base, agar-dilution, S. aureus NRRL B313, read-out: MIC) of 16 µg/mL (≈ 28.2 µM). For the same compound, the MIC ([8]; free base, agar-dilution, H. influenzae 76, read-out: MIC) was 16 µg/mL (≈ 28.2 µM), the MIC ([9]; free base, agar-dilution, Streptococcus sp. group D 9960, read-out: MIC) was 32 µg/mL (≈ 56.4 µM) and the MIC [10] was 8 µg/mL (≈ 14.1 µM). The MIC (Escherichia coli N10) was > 128 µg/mL, the MIC ([11]; free base, agar-dilution, S. faecium ATCC 9790, read-out: MIC) was 32 µg/mL (≈ 56.4 µM) and the MIC [12] was > 128 µg/mL. The MIC ([13]; free base, agar-dilution, H. influenzae C.L., read-out: MIC) was 16 µg/mL (≈ 28.2 µM), the MIC (Escherichia coli TEM) was > 128 µg/mL and the MIC [14] was 16 µg/mL (≈ 28.2 µM). The “antibacterial activity (in words)” value [15] was “inhibit the growth of pathogenic bacteria, especially gram-positive bacteria and Mycoplasma species”, the MIC [16] was 12.5 µg/mL (≈ 22 µM) and the MIC (Mycoplasma hyorhinis) was 50 µg/mL (≈ 88.1 µM). The MIC [17] was 25 µg/mL (≈ 44 µM), the MIC [18] was 12.5 µg/mL (≈ 22 µM) and the MIC (Mycoplasma gallisepticum) was 1.56 µg/mL (≈ 2.75 µM). The MIC (Mycoplasma synoviae) was 12.5 µg/mL (≈ 22 µM).
